Test results from EP4230620A1, “SUBSTITUTED N-AMINO-N-BENZOIC ACID URACILS, THEIR SALTS AND USE OF SAID COMPOUNDS AS HERBICIDAL AGENTS” (Bayer Aktiengesellschaft, priority 2022, dated 2023).

Tests used:
Type in all cases: in vivo
Zea mays = assay: Post-emergence action on crop plants in greenhouse, ZEAMX; settings: 1,25 g/ha, crop plant, post-emergence, visual rating after ca. 3 weeks; 100% = plants dead, 0% = like control plants
Excerpt: (§1) Biologische Beispiele: • Die folgenden Abkürzungen werden für die in den folgenden Tabellen aufgeführten Kultur- und Schadpflanzen verwendet: ABUTH: Abutilon theophrasti ALOMY: Alopecurus myosuroides AMARE: Amaranthus retroflexus BRSNS: Brassica napus DIGSA: Digitaria sanguinalis ECHCG: Echinochloa crus-galli GLXMA: Glycine max KCHSC: Kochia scoparia LOLRI: Lolium rigidum MATIN: Matricaria inodora ORYZA: Oryza sativa PHPBU: Pharbitis purpurea POLCO: Polygonum convolvulus SETVI: Setaria viridis VERPE: Veronica persica VIOTR: Viola tricolor TRZAS: Triticum aestivum ZEAMX: Zea mays • A. Herbizide Wirkung im Nachauflauf
(§2) Samen von mono- bzw. dikotylen Kulturpflanzen wurden in Kunststoff- oder Holzfasertöpfen in sandigem Lehmboden ausgelegt, mit Erde abgedeckt und im Gewächshaus unter kontrollierten Wachstumsbedingungen angezogen. 2 bis 3 Wochen nach der Aussaat wurden die Versuchspflanzen im Einblattstadium behandelt. Die in Form von benetzbaren Pulvern (WP) oder als Emulsionskonzentrate (EC) formulierten erfindungsgemäßen Verbindungen wurden dann als wässrige Suspension bzw. Emulsion unter Zusatz von 0,5% Additiv mit einer Wasseraufwandmenge von umgerechnet 600 l/ha auf die grünen Pflanzenteile gesprüht. Nach ca. 3 Wochen Standzeit der Versuchspflanzen im Gewächshaus, unter optimalen Wachstumsbedingungen, wurde die Wirkung der Präparate visuell im Vergleich zu unbehandelten Kontrollen bonitiert. Beispielsweise bedeutet 100% Wirkung = Pflanzen sind abgestorben, 0% Wirkung = wie Kontrollpflanzen.
(§3) In den nachstehenden Tabellen B1 bis B4 sind die Wirkungen ausgewählter Verbindungen der allgemeinen Formel (I) gemäß der Tabelle 1 auf verschiedene Kulturpflanzen und einer Aufwandmenge entsprechend 20 g/ha und niedriger, die gemäß zuvor genannter Versuchsvorschrift erhalten wurden, dargestellt. Tabelle B1a: Nachauflaufwirkung bei 1,25 g/ha gegen ZEAMX in %

Matricaria inodora = assay: Post-emergence herbicidal action in greenhouse against MATIN; settings: visual rating after ca. 3 weeks
Excerpt: as §1
as §2, with “Unkrautpflanzen” for “Kulturpflanzen”
as §3, with “A1” for “B1”, “A11” for “B4”, “Schadpflanzen” for “Kulturpflanzen”, “A1a:” for “B1a:”, “ABUTH” for “ZEAMX”

Abutilon theophrasti = assay: Post-emergence herbicidal action in greenhouse against ABUTH; settings: post-emergence spray, 600 l/ha water, visual rating after ca. 3 weeks vs untreated controls, 100% = plants dead, 0% = like control plants
Excerpt: as §1
as §2, with “Unkrautpflanzen” for “Kulturpflanzen”
as §3, with “A1” for “B1”, “A11” for “B4”, “Schadpflanzen” for “Kulturpflanzen”, “A1a:” for “B1a:”, “ABUTH” for “ZEAMX”

Digitaria sanguinalis = assay: Post-emergence herbicidal action in greenhouse against DIGSA; settings: visual rating after ca. 3 weeks
Excerpt: as §1
as §2, with “Unkrautpflanzen” for “Kulturpflanzen”
as §3, with “A1” for “B1”, “A11” for “B4”, “Schadpflanzen” for “Kulturpflanzen”, “A1a:” for “B1a:”, “ABUTH” for “ZEAMX”

Triticum aestivum = assay: Post-emergence action on crop plants in greenhouse, TRZAS; settings: crop plant, visual rating after ca. 3 weeks, 100% = plants dead, 0% = like control plants
Excerpt: as §1, §2, §3

Pharbitis purpurea = assay: Post-emergence herbicidal action in greenhouse against PHBPU; settings: visual rating after ca. 3 weeks
Excerpt: as §1
as §2, with “Unkrautpflanzen” for “Kulturpflanzen”
as §3, with “A1” for “B1”, “A11” for “B4”, “Schadpflanzen” for “Kulturpflanzen”, “A1a:” for “B1a:”, “ABUTH” for “ZEAMX”

Veronica persica = assay: Post-emergence herbicidal action in greenhouse against VERPE; settings: visual rating after ca. 3 weeks
Excerpt: as §1
as §2, with “Unkrautpflanzen” for “Kulturpflanzen”
as §3, with “A1” for “B1”, “A11” for “B4”, “Schadpflanzen” for “Kulturpflanzen”, “A1a:” for “B1a:”, “ABUTH” for “ZEAMX”

Viola tricolor = assay: Post-emergence herbicidal action in greenhouse against VIOTR; settings: visual rating after ca. 3 weeks
Excerpt: as §1
as §2, with “Unkrautpflanzen” for “Kulturpflanzen”
as §3, with “A1” for “B1”, “A11” for “B4”, “Schadpflanzen” for “Kulturpflanzen”, “A1a:” for “B1a:”, “ABUTH” for “ZEAMX”

Setaria viridis = assay: Post-emergence herbicidal action in greenhouse against SETVI; settings: visual rating after ca. 3 weeks
Excerpt: as §1
as §2, with “Unkrautpflanzen” for “Kulturpflanzen”
as §3, with “A1” for “B1”, “A11” for “B4”, “Schadpflanzen” for “Kulturpflanzen”, “A1a:” for “B1a:”, “ABUTH” for “ZEAMX”

Polygonum convolvulus = assay: Post-emergence herbicidal action in greenhouse against POLCO; settings: visual rating after ca. 3 weeks
Excerpt: as §1
as §2, with “Unkrautpflanzen” for “Kulturpflanzen”
as §3, with “A1” for “B1”, “A11” for “B4”, “Schadpflanzen” for “Kulturpflanzen”, “A1a:” for “B1a:”, “ABUTH” for “ZEAMX”

Amaranthus retroflexus = assay: Post-emergence herbicidal action in greenhouse against AMARE; settings: post-emergence spray, 600 l/ha water, visual rating after ca. 3 weeks vs untreated controls, 100% = plants dead, 0% = like control plants
Excerpt: as §1
as §2, with “Unkrautpflanzen” for “Kulturpflanzen”
as §3, with “A1” for “B1”, “A11” for “B4”, “Schadpflanzen” for “Kulturpflanzen”, “A1a:” for “B1a:”, “ABUTH” for “ZEAMX”

Oryza sativa = assay: Post-emergence action on crop plants in greenhouse, ORYZA; settings: crop plant, visual rating after ca. 3 weeks, 100% = plants dead, 0% = like control plants
Excerpt: as §1, §2, §3

Alopecurus myosuroides = assay: Post-emergence herbicidal action in greenhouse against ALOMY; settings: 20 g/ha; post-emergence spray, 600 l/ha water; visual rating after ca. 3 weeks vs untreated controls; 100% = plants dead, 0% = like control plants
Excerpt: as §1
as §2, with “Unkrautpflanzen” for “Kulturpflanzen”
as §3, with “A1” for “B1”, “A11” for “B4”, “Schadpflanzen” for “Kulturpflanzen”, “A1a:” for “B1a:”, “ABUTH” for “ZEAMX”

| Nachauflaufwirkung gegen TRZAS (Triticum aestivum; 1,25 g/ha) [%] | Nachauflaufwirkung gegen TRZAS (Triticum aestivum; 5 g/ha) [%] | Nachauflaufwirkung gegen ORYZA (Oryza sativa; 1,25 g/ha) [%] | Structure (SMILES) | Nachauflaufwirkung gegen MATIN (Matricaria inodora; 20 g/ha) [%] | Nachauflaufwirkung gegen ABUTH (Abutilon theophrasti; 5 g/ha) [%] | Nachauflaufwirkung gegen ABUTH (Abutilon theophrasti; 20 g/ha) [%] | Nachauflaufwirkung gegen DIGSA (Digitaria sanguinalis; 20 g/ha) [%] | Nachauflaufwirkung gegen PHBPU (Pharbitis purpurea; 1,25 g/ha) [%] | Nachauflaufwirkung gegen PHBPU (Pharbitis purpurea; 5 g/ha) [%] | Nachauflaufwirkung gegen PHBPU (Pharbitis purpurea; 20 g/ha) [%] | Nachauflaufwirkung gegen VERPE (Veronica persica; 5 g/ha) [%] | Nachauflaufwirkung gegen VERPE (Veronica persica; 20 g/ha) [%] | Nachauflaufwirkung gegen VIOTR (Viola tricolor; 1,25 g/ha) [%] | Nachauflaufwirkung gegen VIOTR (Viola tricolor; 5 g/ha) [%] | Nachauflaufwirkung gegen VIOTR (Viola tricolor; 20 g/ha) [%] | Nachauflaufwirkung gegen SETVI (Setaria viridis; 20 g/ha) [%] | Nachauflaufwirkung gegen POLCO (Polygonum convolvulus; 20 g/ha) [%] | Nachauflaufwirkung gegen AMARE (Amaranthus retroflexus; 1,25 g/ha) [%] | Nachauflaufwirkung gegen AMARE (Amaranthus retroflexus; 5 g/ha) [%] | Nachauflaufwirkung gegen AMARE (Amaranthus retroflexus; 20 g/ha) [%] | further results |
| --- | --- | --- | --- | --- | --- | --- | --- | --- | --- | --- | --- | --- | --- | --- | --- | --- | --- | --- | --- | --- | --- |
| 0 | 0 | 0 | CC(C)(OC(=O)c1cc(-n2c(=O)cc(C(F)(F)F)n(N)c2=O)ccc1Cl)C(=O)OCC#N [I.2-176, 1-(Cyanmethoxy)-2-methyl-1-oxopropan-2-yl-5-[3-amino-2,6-dioxo-4-(trifluormethyl)-3,6-dihydropyrimidin-1(2H)-yl]-2-chlorbenzoat] | 80 | 100 | 100 | 100 | 90 | 100 | 100 | 90 | 100 | 80 | 100 | 100 | 100 | 100 | 100 | 100 | 100 | Nachauflaufwirkung gegen ZEAMX (Zea mays): 20%; Nachauflaufwirkung gegen ABUTH (Abutilon theophrasti; 1,25 g/ha): 80%; Nachauflaufwirkung gegen ORYZA (Oryza sativa; 5 g/ha): 20% |
| 0 | 0 | 0 | CC(C)(OC(=O)c1cc(-n2c(=O)cc(C(F)(F)F)n(N)c2=O)ccc1Cl)C(=O)OCc1ccccn1 [I.2-286] | 100 | 100 | 100 | 100 | 100 | 100 | 100 | 100 | 100 | 100 | 100 | 100 | 100 | 100 | 80 | 100 | 100 | Nachauflaufwirkung gegen ZEAMX (Zea mays): 20%; Nachauflaufwirkung gegen ABUTH (Abutilon theophrasti; 1,25 g/ha): 80%; Nachauflaufwirkung gegen DIGSA (Digitaria sanguinalis; 5 g/ha): 80%; Nachauflaufwirkung gegen TRZAS (Triticum aestivum; 20 g/ha): 10%; Nachauflaufwirkung gegen SETVI (Setaria viridis; 1,25 g/ha): 90%; Nachauflaufwirkung gegen SETVI (Setaria viridis; 5 g/ha): 100%; Nachauflaufwirkung gegen POLCO (Polygonum convolvulus; 5 g/ha): 100%; Nachauflaufwirkung gegen ORYZA (Oryza sativa; 5 g/ha): 0% |
| 0 | 0 | 0 | COCCOC(=O)C(C)(C)OC(=O)c1cc(-n2c(=O)cc(C(F)(F)F)n(N)c2=O)ccc1Cl [I.2-1] | 100 | 100 | 100 | 100 | 80 | 90 | 100 | 100 | 100 | 90 | 100 | 100 | 100 | 100 | 100 | 100 | 100 | Nachauflaufwirkung gegen MATIN (Matricaria inodora; 5 g/ha): 90%; Nachauflaufwirkung gegen ABUTH (Abutilon theophrasti; 1,25 g/ha): 90%; Nachauflaufwirkung gegen TRZAS (Triticum aestivum; 20 g/ha): 10%; Nachauflaufwirkung gegen VERPE (Veronica persica; 1,25 g/ha): 80%; Nachauflaufwirkung gegen SETVI (Setaria viridis; 1,25 g/ha): 100%; Nachauflaufwirkung gegen SETVI (Setaria viridis; 5 g/ha): 100%; Nachauflaufwirkung gegen ALOMY (Alopecurus myosuroides): 80%; Nachauflaufwirkung gegen ORYZA (Oryza sativa; 5 g/ha): 0% |
| 0 | 0 | 0 | CC(C)=NOC(=O)C(C)(C)OC(=O)c1cc(-n2c(=O)cc(C(F)(F)F)n(N)c2=O)ccc1Cl [I.2-491] | 100 | 100 | 100 | 100 | 90 | 100 | 100 | 100 | 100 | 80 | 100 | 100 | 100 | 100 | 80 | 100 | 100 | Nachauflaufwirkung gegen MATIN (Matricaria inodora; 5 g/ha): 80%; Nachauflaufwirkung gegen DIGSA (Digitaria sanguinalis; 5 g/ha): 100%; Nachauflaufwirkung gegen TRZAS (Triticum aestivum; 20 g/ha): 20%; Nachauflaufwirkung gegen SETVI (Setaria viridis; 1,25 g/ha): 90%; Nachauflaufwirkung gegen SETVI (Setaria viridis; 5 g/ha): 100%; Nachauflaufwirkung gegen ORYZA (Oryza sativa; 5 g/ha): 0% |
| 0 | 20 | 0 | C=CCOC(=O)C(C)(C)OC(=O)c1cc(-n2c(=O)cc(C(F)(F)F)n(N)c2=O)c(F)cc1Cl [I.1-471, 1-(Allyloxy)-2-methyl-1-oxopropan-2-yl-5-[3-amino-2,6-dioxo-4-(trifluormethyl)-3,6-dihydropyrimidin-1(2H)-yl]-2-chlor-4-fluorbenzoat] | 100 | 100 | 100 | 100 | 100 | 100 | 100 | 100 | 100 | 90 | 100 | 100 | 100 | 100 | 100 | 100 | 100 | Nachauflaufwirkung gegen MATIN (Matricaria inodora; 5 g/ha): 100%; Nachauflaufwirkung gegen ABUTH (Abutilon theophrasti; 1,25 g/ha): 100%; Nachauflaufwirkung gegen DIGSA (Digitaria sanguinalis; 5 g/ha): 100%; Nachauflaufwirkung gegen VERPE (Veronica persica; 1,25 g/ha): 100%; Nachauflaufwirkung gegen SETVI (Setaria viridis; 1,25 g/ha): 100%; Nachauflaufwirkung gegen SETVI (Setaria viridis; 5 g/ha): 100%; Nachauflaufwirkung gegen ALOMY (Alopecurus myosuroides): 100%; Nachauflaufwirkung gegen POLCO (Polygonum convolvulus; 5 g/ha): 100% |
